# Several values for one entry are separate records, joined by “and”; a condition that tells them apart may be missing. Equal values may be shown once.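 Test compounds were applied to cells in 96-well plates for 48 hours at 5 doses. GI50 marks 50% less growth. At the TGI there is no net growth.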
# Tests used:
# Experiment in all cases: NCI tumour cell line growth inhibition, 48 h
# DU-145 prostate = tested on: DU-145 prostate
# MCF7 breast = tested on: MCF7 breast
# HS 578T breast = tested on: HS 578T breast
# NCI/ADR-RES ovarian = tested on: NCI/ADR-RES ovarian
# MDA-MB-231 breast = tested on: MDA-MB-231 breast
# MDA-MB-435 = tested on: MDA-MB-435
# T-47D breast = tested on: T-47D breast
SMILES,GI50 (DU-145 prostate),TGI (DU-145 prostate),GI50 (MCF7 breast),TGI (MCF7 breast),GI50 (HS 578T breast),TGI (HS 578T breast),GI50 (NCI/ADR-RES ovarian),TGI (NCI/ADR-RES ovarian),GI50 (MDA-MB-231 breast),TGI (MDA-MB-231 breast),GI50 (MDA-MB-435),TGI (MDA-MB-435),GI50 (T-47D breast),TGI (T-47D breast)
COc1ccc(C(=O)c2nc3ccccc3n2CC(=O)c2ccc(Cl)cc2)cc1,4.51 µM,> 100 µM,2.1 µM,> 100 µM,2.49 µM,12.4 µM,1.2 µM,> 21.3 µM,15.6 µM,> 100 µM,0.336 µM,1.79 µM,3.65 µM,> 100 µM
O=C(/C=C/c1cccc(O)c1)c1cccc(-n2cc(-c3ccc4ccccc4c3)[nH]c2=O)c1,1.75 µM,3.65 µM,0.471 µM,1.83 µM,2.01 µM,5.9 µM,1.55 µM,5.83 µM,1.66 µM,4.9 µM,1.71 µM,6.31 µM,1.11 µM,3.84 µM
CSc1ccc(N(C)c2nc(C)nc3c2CCC3)cc1,,,< 0.01 µM,> 100 µM,< 0.01 µM,> 100 µM,< 0.01 µM,12.6 µM,< 0.01 µM,72.4 µM,,,,
CCOC(=O)N1CCN(CCCCCOc2ccccc2C2CCCCC2)CC1,14.4 µM,32.3 µM,3.2 µM,13.1 µM,12.8 µM,34.8 µM,2.05 µM,5.66 µM,5.1 µM,21.5 µM,3.88 µM,15.1 µM,2.35 µM,14.4 µM
CN1c2ccccc2SC2C(c3ccccc3)=NOC21 (stereo not drawn),,> 100 µM,,> 100 µM,,> 100 µM,,87.3 µM,,> 100 µM,,,,94.3 µM
CC(C)[O-].CC(C)[O-].CN(CCN(C)Cc1cc(F)cc(F)c1[O-])Cc1cc(F)cc(F)c1[O-].[Ti+4],1.47 µM,7.06 µM,0.687 µM,2.78 µM,1.62 µM,6.22 µM,0.863 µM,7.05 µM,1.67 µM,10.5 µM,0.585 µM,2.1 µM,0.416 µM,8.31 µM
CC(=Nc1ccc(S(N)(=O)=O)cc1)c1c(O)[nH]c2ccccc12,> 25 µM,> 25 µM,> 17.5 µM,> 25 µM,> 25 µM,> 25 µM,> 25 µM,> 25 µM,> 25 µM,> 25 µM,> 25 µM,> 25 µM,> 8.37 µM,> 25 µM
[2H]c1nc(=Nc2cc(NC(=O)C=C)c(N(C)CCN(C)C)cc2OC)[nH]c(-c2cn(C([2H])([2H])[2H])c3ccccc23)c1[2H],1.51 µM,11.8 µM,1.39 µM,3.23 µM,2.59 µM,9.74 µM,1.39 µM,5.02 µM,1.27 µM,2.81 µM,1.62 µM,3.09 µM,1.07 µM,2.83 µM
COc1ccc(Nc2nccc(N3CCN(c4c5ccc(Cl)cc5nc5ccc(OC)cc45)CC3)n2)cc1,28.7 µM,> 100 µM,3.67 µM,> 100 µM,5.78 µM,> 100 µM,7.41 µM,> 100 µM,4.63 µM,> 100 µM,8.28 µM,> 100 µM,2.99 µM,44.7 µM
Cc1ccc(NC(=O)/C(Cc2nc3ccc([N+](=O)[O-])cc3[nH]c2=O)=N\NC(=O)C[n+]2ccccc2)c(C)c1,,> 100 µM,,> 100 µM,,> 100 µM,,> 100 µM,,86.4 µM,,> 100 µM,,
O=C1/C(=C/c2ccc([N+](=O)[O-])cc2)COc2ccc(O)cc21,13.5 µM,> 100 µM,1.23 µM,2.8 µM,3.54 µM,> 100 µM,16.9 µM,> 100 µM,4.77 µM,36.9 µM,5.21 µM,29.7 µM,9.73 µM,> 100 µM
C=CC1=C(C)C2=NC1=CC1=NC(=CC3=C(C)C4=C(O)[C@H](C(=O)OC)C(=C5NC(=C2)[C@@H](C)[C@@H]5CCC(=O)O)C4=N3)C(CC)=C1C,,> 100 µM,,11 µM,,> 100 µM,,> 22.1 µM,,> 60.5 µM,,> 46.5 µM,,62.4 µM
CCNCCNc1cc(-c2ccc(C#N)cc2)c(C#N)c2nc3ccccc3n12,4.13 µM,15.3 µM,3.59 µM,16.2 µM,3.49 µM,13.9 µM,5.74 µM,36 µM,2.35 µM,5.61 µM,2.29 µM,6.28 µM,2.34 µM,6.39 µM
COc1ccc(F)c(F)c1C(=O)c1cnc(NC2CCN(S(C)(=O)=O)CC2)nc1N,1.7 µM and 0.623 µM,> 71.2 µM,0.0674 µM and 0.0458 µM,> 100 µM,1.52 µM and 0.695 µM,6.12 µM and > 8.4 µM,2.63 µM and 1.65 µM,> 100 µM,0.805 µM and 0.262 µM,,0.419 µM and 0.309 µM,3.72 µM and > 4.89 µM,1.04 µM and 0.678 µM,11.8 µM and > 8.01 µM
Cc1ccc(-n2nc(C(C)(C)C)cc2NC(=O)NCc2cc(F)ccc2Oc2ccc3c(cnn3CCO)c2)cc1,> 10 µM and 7.2 µM,> 100 µM,3.55 µM and 3.26 µM,> 10 µM and 51.7 µM,> 10 µM and 10.1 µM,> 100 µM,> 10 µM and 7.5 µM,> 100 µM,2.6 µM and 2.57 µM,> 58.9 µM,3.37 µM and 2.75 µM,> 62.5 µM,3.79 µM and 3.76 µM,> 10 µM and 32.7 µM
COc1cc2nc(-c3ccc(C(F)(F)F)cc3)cc(OCCCN3CCCC3)c2cc1OC,0.992 µM,> 46.6 µM,1.12 µM,4.13 µM,2.48 µM,19.3 µM,0.47 µM,39 µM,0.532 µM,8.23 µM,1.15 µM,15.1 µM,0.478 µM,15.9 µM
CCCCCCCCCCCCCC[n+]1cccc(C(N)=O)c1,3.3 µM,11.6 µM,2.62 µM,11.4 µM,2.64 µM,10.3 µM,25.6 µM,> 80.3 µM,1.45 µM,4.54 µM,1.5 µM,3.24 µM,4.66 µM,27.6 µM
CCOC(=O)c1c(SCCN2CCOCC2)n(-c2ccccc2)c(=S)n(-c2ccccc2)c1=O,,,,41.5 µM,,87.4 µM,,,,> 100 µM,,> 100 µM,,> 100 µM

# — PubChem BioAssay (NCI)
